Experimental data: PMC11206519, “Multi-Endpoint Toxicological Assessment of Chrysin Loaded Oil-in-Water Emulsion System in Different Biological Models” (Nanomaterials, 2024)

Assays:
[1] = tested on: D. melanogaster trans-heterozygous mwh+/+flr3 larvae of the HB cross; test: SMART wing spot test, mutagenicity, HB cross; assay type: in vivo, Drosophila melanogaster
Experimental: (§1) The somatic mutation and recombination test, or the wing spot test, using D. melanogaster was employed as an in vivo system to assess the mutagenicity and anti-mutagenicity of chrysin-ES. Two different crosses were conducted: (i) a standard cross (ST) and (ii) a high bioactivation cross (HB) [18]. The standard cross larvae were obtained from virgin female of flr3/TM3, Ser crossed with males of mwh/mwh, while the HB cross larvae expressing cytochrome P450 enzymes involved in xenobiotic biotransformation were obtained from virgin females of ORR/ORR; flr^3/In (3LR) TM3, ri p^psep l (3)89Aa bx^34e e Bd^s crossed with males of mwh/mwh. The flies were cultured at a constant temperature of 25 ± 1 °C and 60–70% RH at photoperiod 12:12 (light/dark). To evaluate the mutagenicity of chrysin and chrysin-ES, a hundred larva F1 progenies derived from the above crossing were fed with instant Drosophila medium (Formula 4-24®), Carolina, Burlington, NC, USA) containing chrysin or chrysin-ES (20–120 µg/mL). DI was used as a negative control, while 20 mM urethane (URE) was used as a positive control. The larvae were reared on each medium until pupation at 25 °C. After that, forty wings of surviving flies in each group were collected for mutant analysis. The mutant spots on the wings, including small single spots, large single spots, and twin spots, were counted.

[2] = tested on: Sprague Dawley rats; details: ref 45 (Yao et al.), cited from earlier work
[3] = tested on: D. melanogaster trans-heterozygous mwh+/+flr3 larvae of the ST cross; test: SMART wing spot test, mutagenicity, ST cross; assay type: in vivo, Drosophila melanogaster; details: for Statistical diagnosis, Small Single / Statistical diagnosis, Total Spots: vs DI
Experimental: as §1

[4] = tested on: D. melanogaster trans-heterozygous mwh+/+flr3 larvae of the ST cross; test: SMART wing spot test, anti-mutagenicity, ST cross
Experimental: The somatic mutation and recombination test, or the wing spot test, using D. melanogaster was employed as an in vivo system to assess the mutagenicity and anti-mutagenicity of chrysin-ES. Two different crosses were conducted: (i) a standard cross (ST) and (ii) a high bioactivation cross (HB). The standard cross larvae were obtained from virgin female of flr3/TM3, Ser crossed with males of mwh/mwh, while the HB cross larvae expressing cytochrome P450 enzymes involved in xenobiotic biotransformation were obtained from virgin females of ORR/ORR; flr^3/In (3LR) TM3, ri p^psep l (3)89Aa bx^34e e Bd^s crossed with males of mwh/mwh. The flies were cultured at a constant temperature of 25 ± 1 °C and 60–70% RH at photoperiod 12:12 (light/dark). To evaluate the mutagenicity of chrysin and chrysin-ES, a hundred larva F1 progenies derived from the above crossing were fed with instant Drosophila medium (Formula 4-24®), Carolina, Burlington, NC, USA) containing chrysin or chrysin-ES (20–120 µg/mL). DI was used as a negative control, while 20 mM urethane (URE) was used as a positive control. The larvae were reared on each medium until pupation at 25 °C. After that, forty wings of surviving flies in each group were collected for mutant analysis. The mutant spots on the wings, including small single spots, large single spots, and twin spots, were counted. The statistical significance was calculated as previously described by Frei and Würgler.
Furthermore, the anti-mutagenicity of the samples was performed by a similar procedure as mentioned above.

[5] = NMU (sodium nitrite 36 mM: methylurea 10 mM) + 20 μg/mL

## O=c1cc(-c2ccccc2)oc2cc(O)cc(O)c12 [Chrysin, 5,7-dihydroxyflavone]
[1]; 20 µg/mL
  Mutant spots per individual (number of spots), Large Single: 0.03 (1)
  Mutant spots per individual (number of spots), Total Spots: 0.23 (9)
  Mutant spots per individual (number of spots), Twin: 0.03 (1)
[1]; 40 µg/mL
  Mutant spots per individual (number of spots), Large Single: 0.03 (1)
  Mutant spots per individual (number of spots), Total Spots: 0.15 (6)
  Mutant spots per individual (number of spots), Twin: 0 (0)
[1]; 80 µg/mL
  Mutant spots per individual (number of spots), Large Single: 0.03 (1)
  Mutant spots per individual (number of spots), Total Spots: 0.15 (6)
  Mutant spots per individual (number of spots), Twin: 0 (0)
[1]; 120 µg/mL
  Mutant spots per individual (number of spots), Large Single: 0 (0)
  Mutant spots per individual (number of spots), Small Single: 0.08 (3)
  Mutant spots per individual (number of spots), Total Spots: 0.08 (3)
  Mutant spots per individual (number of spots), Twin: 0 (0)
[1]; 120 µg/mL, vs DI
  Statistical diagnosis, Small Single: −
  Statistical diagnosis, Total Spots: −
[2]; single oral 5000 mg/kg BW
  mortality: 40%
[2]; single oral administration
  LD50: ~5000 mg/kg BW
[3]; 20 µg/mL
  Mutant spots per individual (number of spots), Large Single: 0 (0)
  Mutant spots per individual (number of spots), Small Single: 0.38 (15)
  Mutant spots per individual (number of spots), Total Spots: 0.38 (15)
  Mutant spots per individual (number of spots), Twin: 0 (0)
  Statistical diagnosis, Small Single: −
  Statistical diagnosis, Total Spots: −
[3]; 40 µg/mL
  Mutant spots per individual (number of spots), Large Single: 0.03 (1)
  Mutant spots per individual (number of spots), Total Spots: 0.38 (15)
  Mutant spots per individual (number of spots), Twin: 0 (0)
  Statistical diagnosis, Small Single: −
  Statistical diagnosis, Total Spots: −
[3]; 80 µg/mL
  Mutant spots per individual (number of spots), Large Single: 0 (0)
  Mutant spots per individual (number of spots), Small Single: 0.58 (23)
  Mutant spots per individual (number of spots), Total Spots: 0.58 (23)
  Mutant spots per individual (number of spots), Twin: 0 (0)
  Statistical diagnosis, Small Single: −
  Statistical diagnosis, Total Spots: −
[3]; 120 µg/mL
  Mutant spots per individual (number of spots), Large Single: 0.08 (3)
  Mutant spots per individual (number of spots), Small Single: 0.83 (33)
  Mutant spots per individual (number of spots), Total Spots: 0.90 (36)
  Mutant spots per individual (number of spots), Twin: 0 (0)
  Statistical diagnosis, Small Single: −
  Statistical diagnosis, Total Spots: −
[3]; 20–120 μg/mL, ST and HB cross
  mutagenicity in SMART: non-mutagenic
[4]; 40–80 µg/mL
  inhibition of MMC mutagenicity: approximately 30%
[4]; EMS 5 mM + 20 μg/mL
  Inhibition (%): 19%
  Inhibitory Classification: Negligible
  Mutant spots per individual (number of spots), Large Single: 1.28 (51)
  Mutant spots per individual (number of spots), Small Single: 4.88 (195)
  Mutant spots per individual (number of spots), Total: 6.35 (254)
  Mutant spots per individual (number of spots), Twin: 0.20 (8)
[4]; EMS 5 mM + 40 μg/mL
  Inhibition (%): 46%
  Inhibitory Classification: Moderate
  Mutant spots per individual (number of spots), Large Single: 0.93 (37)
  Mutant spots per individual (number of spots), Total: 4.20 (168)
  Mutant spots per individual (number of spots), Twin: 0.35 (14)
[4]; EMS 5 mM + 80 μg/mL
  Inhibition (%): 49%
  Inhibitory Classification: Moderate
  Mutant spots per individual (number of spots), Large Single: 0.35 (14)
  Mutant spots per individual (number of spots), Small Single: 3.50 (140)
  Mutant spots per individual (number of spots), Total: 3.95 (158)
  Mutant spots per individual (number of spots), Twin: 0.10 (4)
[4]; EMS 5 mM + 120 μg/mL
  Inhibition (%): 42%
  Inhibitory Classification: Moderate
  Mutant spots per individual (number of spots), Large Single: 0.88 (35)
  Mutant spots per individual (number of spots), Small Single: 3.40 (136)
  Mutant spots per individual (number of spots), Total: 4.55 (182)
  Mutant spots per individual (number of spots), Twin: 0.28 (11)
[4]; MMC 0.05 mM + 20 μg/mL
  Inhibition (%): −1%
  Mutant spots per individual (number of spots), Large Single: 1.45 (58)
  Mutant spots per individual (number of spots), Small Single: 8.05 (322)
  Mutant spots per individual (number of spots), Total: 9.85 (394)
  Mutant spots per individual (number of spots), Twin: 0.35 (14)
[4]; MMC 0.05 mM + 40 μg/mL
  Inhibition (%): 30%
  Inhibitory Classification: Weak
  Mutant spots per individual (number of spots), Large Single: 1.35 (54)
  Mutant spots per individual (number of spots), Small Single: 4.98 (199)
  Mutant spots per individual (number of spots), Total: 6.85 (274)
  Mutant spots per individual (number of spots), Twin: 0.53 (21)
[4]; MMC 0.05 mM + 80 μg/mL
  Inhibition (%): 30%
  Inhibitory Classification: Weak
  Mutant spots per individual (number of spots), Large Single: 1.63 (65)
  Mutant spots per individual (number of spots), Small Single: 4.48 (179)
  Mutant spots per individual (number of spots), Total: 6.83 (273)
  Mutant spots per individual (number of spots), Twin: 0.73 (29)
[4]; MMC 0.05 mM + 120 μg/mL
  Inhibition (%): 77%
  Inhibitory Classification: Strong
  Mutant spots per individual (number of spots), Large Single: 0.58 (23)
  Mutant spots per individual (number of spots), Small Single: 1.50 (60)
  Mutant spots per individual (number of spots), Total: 2.25 (90)
  Mutant spots per individual (number of spots), Twin: 0.18 (7)
[4]; MMC 0.05 mM + 120 μg/mL, listed as chrysin
  Inhibition (%): approximately 77%
[4]; [5]
  Inhibition (%): 89%
  Inhibitory Classification: Strong
  Mutant spots per individual (number of spots), Large Single: 0.03 (1)
  Mutant spots per individual (number of spots), Small Single: 0.15 (6)
  Mutant spots per individual (number of spots), Total: 0.23 (9)
  Mutant spots per individual (number of spots), Twin: 0.05 (2)
[4]; NMU + 40 μg/mL
  Inhibition (%): 91%
  Inhibitory Classification: Strong
  Mutant spots per individual (number of spots), Large Single: 0 (0)
  Mutant spots per individual (number of spots), Small Single: 0.18 (7)
  Mutant spots per individual (number of spots), Total: 0.18 (7)
  Mutant spots per individual (number of spots), Twin: 0 (0)
[4]; NMU + 80 μg/mL
  Inhibition (%): 91%
  Inhibitory Classification: Strong
  Mutant spots per individual (number of spots), Large Single: 0 (0)
  Mutant spots per individual (number of spots), Small Single: 0.18 (7)
  Mutant spots per individual (number of spots), Total: 0.18 (7)
  Mutant spots per individual (number of spots), Twin: 0 (0)
[4]; NMU + 120 μg/mL
  Inhibition (%): 90%
  Inhibitory Classification: Strong
  Mutant spots per individual (number of spots), Large Single: 0.08 (3)
  Mutant spots per individual (number of spots), Small Single: 0.13 (5)
  Mutant spots per individual (number of spots), Total: 0.20 (8)
  Mutant spots per individual (number of spots), Twin: 0 (0)
[4]; URE 20 mM + 20 μg/mL
  Inhibition (%): 94%
  Inhibitory Classification: Strong
  Mutant spots per individual (number of spots), Large Single: 0 (0)
  Mutant spots per individual (number of spots), Small Single: 0.23 (9)
  Mutant spots per individual (number of spots), Total: 0.23 (9)
  Mutant spots per individual (number of spots), Twin: 0 (0)
[4]; URE 20 mM + 40 μg/mL
  Inhibition (%): 91%
  Inhibitory Classification: Strong
  Mutant spots per individual (number of spots), Large Single: 0.03 (1)
  Mutant spots per individual (number of spots), Small Single: 0.33 (13)
  Mutant spots per individual (number of spots), Total: 0.35 (14)
  Mutant spots per individual (number of spots), Twin: 0 (0)
[4]; URE 20 mM + 80 μg/mL
  Inhibition (%): 91%
  Inhibitory Classification: Strong
  Mutant spots per individual (number of spots), Large Single: 0 (0)
  Mutant spots per individual (number of spots), Small Single: 0.35 (14)
  Mutant spots per individual (number of spots), Total: 0.35 (14)
  Mutant spots per individual (number of spots), Twin: 0 (0)
[4]; URE 20 mM + 120 μg/mL
  Inhibition (%): 86%
  Inhibitory Classification: Strong
  Mutant spots per individual (number of spots), Large Single: 0.03 (1)
  Mutant spots per individual (number of spots), Small Single: 0.55 (22)
  Mutant spots per individual (number of spots), Total: 0.56 (23)
  Mutant spots per individual (number of spots), Twin: 0 (0)
